Assay results published in patent publication US20060247261A1 (priority 2002, published 2006).

Target: T1, human cannabinoid CB2 receptor (Homo sapiens, UniProt P34972)
T1 construct: expressed in transfected cells; host or cells: Saccharomyces cerevisiae strain MMY23 (expresses a chimeric Gpa1/human Galpha-i3 G-protein alpha subunit)
Test: Cannabinoid CB2 receptor agonist activity, yeast reporter assay
Type: cell-based
Settings: for Emax: read-out: efficacy (Emax) at the cloned human cannabinoid CB2 receptor
Excerpt: Yeast (Saccharomyces cerevisiae) cells expressing the human cannabinoid CB2 receptor were generated by integration of an expression cassette into the ura3 chromosomal locus of yeast strain MMY23. This cassette consisted of DNA sequence encoding the human CB2 receptor flanked by the yeast GPD promoter to the 5′ end of CB2 and a yeast transcriptional terminator sequence to the 3′ end of CB2. MMY23 expresses a yeast/mammalian chimeric G-protein alpha subunit in which the C-terminal 5 amino acids of Gpa1 are replaced with the C-terminal 5 amino acids of human Gαi3 (as described in Brown et al. (2000), Yeast 16:11-22).
Agonists were prepared as 10 mM stocks in DMSO. […] Agonist solutions in DMSO (1% final assay volume) were transferred into black, clear bottom, microtitre plates from NUNC (96- or 384-well). […] Fluorescence was plotted against compound concentration and iteratively curve fitted using a four parameter fit to generate a concentration effect value.

T1 sequence (P34972 whole entry): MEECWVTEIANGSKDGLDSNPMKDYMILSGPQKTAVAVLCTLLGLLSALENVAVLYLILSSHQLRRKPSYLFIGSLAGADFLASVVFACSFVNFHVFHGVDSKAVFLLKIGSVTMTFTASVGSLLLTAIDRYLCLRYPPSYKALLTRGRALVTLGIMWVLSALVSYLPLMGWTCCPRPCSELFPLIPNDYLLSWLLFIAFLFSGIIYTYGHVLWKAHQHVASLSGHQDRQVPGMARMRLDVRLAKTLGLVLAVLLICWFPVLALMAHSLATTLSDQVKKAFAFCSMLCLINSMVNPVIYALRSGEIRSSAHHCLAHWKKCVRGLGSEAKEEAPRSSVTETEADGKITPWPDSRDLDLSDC

SMILES	EC50 [nM]	Emax [%]
O=C(NCc1ccccn1)c1cnc(Nc2cccc(Cl)c2)nc1C(F)(F)F [Example 59, 2-(3-Chloro-phenylamino)-4-trifluoromethyl-pyrimidine-5-carboxylic acid N-(pyridin-2-ylmethyl)-amide]	> 1000	< 50
O=C(NCc1cccnc1)c1cnc(Nc2cccc(Cl)c2)nc1C(F)(F)F [Example 60, 2-(3-Chloro-phenylamino)-4-trifluoromethyl-pyrimidine-5-carboxylic acid N-(pyridin-3-ylmetbyl)-amide]	> 1000	< 50
O=C(NCc1cc(F)cc(F)c1)c1cnc(Nc2cccc(Cl)c2)nc1C(F)(F)F [Example 61, 2-(3-Chloro-phenylamino)-4-trifluoromethyl-pyrimidine-5-carboxylic acid N-(3,5-difluoro-benzyl)amide]	> 1000	< 50
O=C(NCc1ccc(OC(F)(F)F)cc1)c1cnc(Nc2cccc(Cl)c2)nc1C(F)(F)F [Example 62, 2-(3-Chloro-phenylamino)-4-trifluoromethyl-pyrimidine-5-carboxylic acid N-(4-trifluoromethoxybenzyl)amide]	> 1000	< 50
O=C(NCc1ccc(Br)cc1)c1cnc(Nc2cccc(Cl)c2)nc1C(F)(F)F [Example 63, 2-(3-Chloro-phenylamino)-4-trifluoromethyl-pyrimidine-5-carboxylic acid N-(4-bromo-benzyl)amide]	> 1000	< 50
N#Cc1ccc(CNC(=O)c2cnc(Nc3cccc(Br)c3)nc2C(F)(F)F)cc1 [Example 64, 2-(3-Bromo-phenylamino)-4-trifluoromethyl-pyrimidine-5-carboxylic acid N-(4-cyano-benzyl)amide]	> 1000	< 50
N#Cc1ccc(CNC(=O)c2cnc(Nc3cccc(Cl)c3Cl)nc2C(F)(F)F)cc1 [Example 65, 2-(2,3-Dichloro-phenylamino)-4-trifluoromethyl-pyrimidine-5-carboxylic acid N-(4-cyano-benzyl)amide]	> 1000	< 50
N#Cc1ccc(CNC(=O)c2cnc(Nc3ccc(Cl)cc3Cl)nc2C(F)(F)F)cc1 [Example 66, 2-(2,4-Dichloro-phenylamino)-4-trifluoromethyl-pyrimidine-5-carboxylic acid N-(4-cyano-benzyl)amide]	> 1000	< 50
N#Cc1ccc(CNC(=O)c2cnc(Nc3cc(Cl)ccc3Cl)nc2C(F)(F)F)cc1 [Example 67, 2-(2,5-Dichloro-phenylamino)-4-trifluoromethyl-pyrimidine-5-carboxylic acid N-(4-cyano-benzyl)amide]	> 1000	< 50
N#Cc1ccc(CNC(=O)c2cnc(Nc3ccc(Cl)c(Cl)c3)nc2C(F)(F)F)cc1 [Example 68, 2-(3,4-Dichloro-phenylamino)-4-trifluoromethyl-pyrimidine-5-carboxylic acid N-(4-cyano-benzyl)amide]	> 1000	< 50
O=C(NCc1ccncc1)c1cnc(Nc2c(Cl)cccc2Cl)nc1C(F)(F)F [Example 69, 2-(2,6-Dichloro-phenylamino)-4-trifluorometbyl-pyrimidine-5-carboxylic acid N-(pyridin-4-ylmethyl)-amide]	> 1000	< 50
O=C(NCc1ccc(F)cc1)c1cnc(Nc2c(Cl)cccc2Cl)nc1C(F)(F)F [Example 70, 2-(2,6-Dichloro-phenylamino)-4-trifluoromethyl-pyrimidine-5-carboxylic acid N-(4-fluoro-benzyl)amide]	> 1000	< 50
N#Cc1ccc(CNC(=O)c2cnc(Nc3c(Cl)cccc3Cl)nc2C(F)(F)F)cc1 [Example 71, 2-(2,6-Dichloro-phenylamino)-4-trifluoroniethyl-pyrimidine-5-carboxylic acid N-(4-cyano-benzyl)amide]	> 1000	< 50
O=C(NCc1ccc(F)cc1Cl)c1cnc(Nc2cccc(Cl)c2)nc1C(F)(F)F [Example 72, 2-(3-Chloro-phenylamino)-4-trifluoromethyl-pyrimidine-5-carboxylic acid N-(2-chloro-4-fluoro-benzyl)amide]	> 1000	< 50
O=C(NCc1ccc(F)cc1C(F)(F)F)c1cnc(Nc2cccc(Cl)c2)nc1C(F)(F)F [Example 74, 2-(3-Chloro-phenylamino)-4-trifluoromethyl-pyrimidine-5-carboxylic acid N-(4-fluoro-2-trifluoromethyl-benzyl)amide]	> 1000	< 50
O=C(NCc1ccc(F)c(C(F)(F)F)c1)c1cnc(Nc2cccc(Cl)c2)nc1C(F)(F)F [Example 75, 2-(3-Chloro-phenylamino)-4-trifluoromethyl-pyrimidine-5-carboxylic acid N-(4-fluoro-3-trifluoromethyl-benzyl)amide]	> 1000	< 50
O=C(NCc1ccncn1)c1cnc(Nc2cccc(F)c2)nc1C(F)(F)F [Example 76, 2-(3-Fluoro-phenylamino)-4-trifluoromethyl-pyrimidine-5-carboxylic acid N-(pyrimidin-4-ylmethyl)-amide]	> 1000	< 50
Cc1cc(CNC(=O)c2cnc(Nc3cccc(F)c3)nc2C(F)(F)F)ccn1 [Example 77, 2-(3-Fluoro-phenylamino)-4-trifluoromethyl-pyrimidine-5-carboxylic acid N-(2-methyl-pyridin-4-ylmethyl)-amide]	> 1000	< 50
Cc1ccc(CNC(=O)c2cnc(Nc3cccc(Cl)c3)nc2C(F)(F)F)cc1 [Example 78, 2-(3-Chloro-phenylamino)-4-trifluoromethyl-pyrimidine-5-carboxylic acid N-(4-methyl-benzyl)amide]	> 1000	< 50
O=C(NCc1ccc(F)c(F)c1)c1cnc(Nc2cccc(Cl)c2)nc1C(F)(F)F [Example 81, 2-(3-Chloro-phenylamino)-4-trifluoromethyl-pyrimidine-5-carboxylic acid 3,4-difluoro-benzylamide]	20 to 1000	> 50
O=C(NCc1ccc(F)cc1)c1cnc(Nc2ccc(F)c(Cl)c2)nc1C(F)(F)F [Example 82, 2-(3-Chloro-4-fluoro-phenylamino)-4-trifluoromethyl-pyrimidine-5-carboxylic acid 4-fluoro-benzylamide]	20 to 1000	> 50
O=C(NCc1ccc(F)cc1)c1cnc(Nc2cccc(Cl)c2F)nc1C(F)(F)F [Example 83, 2-(3-Chloro-2-fluoro-phenylamino)-4-trifluoromethyl-pyrimidine-5-carboxylic acid 4-fluoro-benzylamide]	20 to 1000	> 50
O=C(NCc1ccc(F)cc1)c1cnc(Nc2cc(Cl)ccc2F)nc1C(F)(F)F [Example 84, 2-(5-Chloro-2-fluoro-phenylamino)-4-trifluoromethyl-pyrimidine-5-carboxylic acid 4-fluoro-benzylamide]	20 to 1000	> 50
O=C(NCc1ccc(F)cc1)c1cnc(Nc2cc(F)cc(F)c2)nc1C(F)(F)F [Example 85, 2-(3,5-Difluoro-phenylamino)-4-trifluoromethyl-pyrimidine-5-carboxylic acid 4-fluoro-benzylamide]	20 to 1000	> 50
